Columns and labels:
Assay in all cases: Ki app determination (Waley's method)
NDM-6 = NDM-6 (Klebsiella pneumoniae, UniProt C7C422, A233V)
CTX-M-14 = CTX-M-14 (Escherichia coli, UniProt Q9L5C7)
CTX-M-15 = CTX-M-15 (Escherichia coli, UniProt Q9EXV5)
NDM-1 = NDM-1 (Klebsiella pneumoniae, UniProt C7C422)
NDM-5 = NDM-5 (Klebsiella pneumoniae, UniProt C7C422, M154L/V88L)
SHV-2 = SHV-2 (Klebsiella pneumoniae, UniProt P0A9Z8)
SHV-5 = SHV-5 (Klebsiella pneumoniae, UniProt P0A3M1)
OXA-72 = OXA-72 (Acinetobacter baumannii, UniProt Q5XQU0)
OXA-23 = OXA-23 (Acinetobacter baumannii, UniProt Q9L4P2)
IMP-1 = IMP-1 (Serratia marcescens, UniProt P52699)
OXA-66 = OXA-66 (Acinetobacter baumannii, UniProt Q58XD2)
OXA-24 = OXA-24 (Acinetobacter baumannii, UniProt Q8RLA6)
NDM-7 = NDM-7 (Klebsiella pneumoniae, UniProt C7C422, D130N/M154L)
NDM-4 = NDM-4 (Klebsiella pneumoniae, UniProt C7C422, M154L)
IMP-6 = IMP-6 (Serratia marcescens, UniProt P52699, S214G)
VIM-1 = VIM-1 (Pseudomonas aeruginosa, UniProt A0A0F7KYQ8)
VIM-2 = VIM-2 (Escherichia coli, UniProt Q5U7L7)
CTX-M-27 = CTX-M-27 (Escherichia coli, UniProt Q840M4)
SHV-12 = SHV-12 (Klebsiella pneumoniae, UniProt P0A3M1, L31Q)
OXA-65 = OXA-65 (Acinetobacter baumannii, UniProt Q58XD3)
KPC-3 = KPC-3 (Klebsiella pneumoniae, UniProt Q9F663, H272Y)
KPC-38 = KPC-38 (Klebsiella pneumoniae, UniProt Q9F663); settings: read-out: Ki app, means from three independent studies
OXA-48 = OXA-48 (Klebsiella pneumoniae, UniProt Q6XEC0)
KPC-2 = KPC-2 (Klebsiella pneumoniae, UniProt Q9F663)

Question: How did the Ki (NDM-6) turn out when `O=C(NC1CCNCC1)[C@@H]1CC[C@@H]2CN1C(=O)N2OS(=O)(=O)O` [Relebactam, relebactam] was run?
Answer: > 100000 nM

Question: What about the Ki (CTX-M-14) of the same compound?
Answer: 5.96 ± 3.22 nM

Question: And the Ki (CTX-M-15)?
Answer: 0.841 ± 0.235 nM

Question: And the Ki (NDM-1)?
Answer: > 100000 nM

Question: And the Ki (NDM-5)?
Answer: > 100000 nM

Question: What about the Ki (SHV-2) of the same compound?
Answer: 0.373 ± 0.0856 nM

Question: And the Ki (SHV-5)?
Answer: 6.26 ± 1.53 nM

Question: And the Ki (OXA-72)?
Answer: ≥ 37400 nM

Question: What about the Ki (OXA-23) of the same compound?
Answer: 5640 nM

Question: And the Ki (IMP-1)?
Answer: > 100000 nM

Question: And the Ki (OXA-66)?
Answer: > 100000 nM

Question: And the Ki (OXA-24)?
Answer: > 100000 nM

Question: And the Ki (NDM-7)?
Answer: > 100000 nM

Question: And the Ki (NDM-4)?
Answer: > 100000 nM

Question: And the Ki (IMP-6)?
Answer: > 100000 nM

Question: What about the Ki (VIM-1) of the same compound?
Answer: > 100000 nM

Question: And the Ki (VIM-2)?
Answer: > 100000 nM

Question: What about the Ki (CTX-M-27) of the same compound?
Answer: 3.62 ± 1.2 nM

Question: And the Ki (SHV-12)?
Answer: 19.3 ± 6.32 nM

Question: What about the Ki (OXA-65) of the same compound?
Answer: > 100000 nM

Question: Which Ki (KPC-3) does the source give for `C[C@]1(Cn2ccnn2)[C@H](C(=O)O)N2C(=O)C[C@H]2S1(=O)=O` [Tazobactam, tazobactam] here?
Answer: 270 ± 80.8 nM

Question: And the Ki (NDM-6)?
Answer: > 100000 nM

Question: And the Ki (CTX-M-15)?
Answer: 0.0387 ± 0.00434 nM

Question: And the Ki (NDM-1)?
Answer: > 100000 nM

Question: What about the Ki (KPC-38) of the same compound?
Answer: 112 ± 14.5 nM

Question: What about the Ki (NDM-5) of the same compound?
Answer: > 100000 nM

Question: What about the Ki (SHV-2) of the same compound?
Answer: 0.187 ± 0.104 nM

Question: And the Ki (SHV-5)?
Answer: 1.84 ± 0.243 nM

Question: What about the Ki (OXA-48) of the same compound?
Answer: 5.32 ± 0.329 nM

Question: What about the Ki (OXA-72) of the same compound?
Answer: 78.9 ± 8.96 nM

Question: And the Ki (OXA-23)?
Answer: 14 ± 5.31 nM

Question: And the Ki (IMP-1)?
Answer: > 100000 nM

Question: And the Ki (OXA-66)?
Answer: > 100000 nM

Question: What about the Ki (OXA-24) of the same compound?
Answer: 100 ± 45.6 nM

Question: And the Ki (NDM-7)?
Answer: > 100000 nM

Question: And the Ki (NDM-4)?
Answer: > 100000 nM

Question: What about the Ki (IMP-6) of the same compound?
Answer: > 100000 nM

Question: And the Ki (VIM-1)?
Answer: > 100000 nM

Question: What about the Ki (VIM-2) of the same compound?
Answer: > 100000 nM

Question: And the Ki (CTX-M-27)?
Answer: 0.0403 ± 0.0162 nM

Question: And the Ki (SHV-12)?
Answer: 1.68 ± 0.266 nM

Question: And the Ki (KPC-2)?
Answer: 159 ± 48.2 nM

Question: And the Ki (OXA-65)?
Answer: > 100000 nM

Question: `O=C(O)C[C@@H]1CC[C@H](NC(=O)Cc2cccs2)B(O)O1` [Vaborbactam, vaborbactam] was tested. Which Ki (KPC-3) did it give?
Answer: 88.3 ± 30.3 nM

Question: And the Ki (NDM-6)?
Answer: > 100000 nM

Question: And the Ki (CTX-M-14)?
Answer: 392 ± 20.3 nM

Question: What about the Ki (CTX-M-15) of the same compound?
Answer: 78.1 ± 6.63 nM

Question: What about the Ki (NDM-1) of the same compound?
Answer: > 100000 nM

Question: What about the Ki (KPC-38) of the same compound?
Answer: 48.3 ± 13.2 nM

Question: What about the Ki (NDM-5) of the same compound?
Answer: > 100000 nM

Question: What about the Ki (SHV-2) of the same compound?
Answer: > 100000 nM

Question: And the Ki (SHV-5)?
Answer: 1420 nM

Question: What about the Ki (OXA-48) of the same compound?
Answer: > 100000 nM

Question: And the Ki (OXA-72)?
Answer: > 100000 nM

Question: What about the Ki (OXA-23) of the same compound?
Answer: > 100000 nM

Question: What about the Ki (IMP-1) of the same compound?
Answer: > 100000 nM

Question: What about the Ki (OXA-66) of the same compound?
Answer: > 100000 nM

Question: What about the Ki (OXA-24) of the same compound?
Answer: > 100000 nM

Question: And the Ki (NDM-7)?
Answer: > 100000 nM

Question: And the Ki (NDM-4)?
Answer: > 100000 nM

Question: What about the Ki (IMP-6) of the same compound?
Answer: > 100000 nM

Question: And the Ki (VIM-1)?
Answer: > 100000 nM

Question: What about the Ki (VIM-2) of the same compound?
Answer: > 100000 nM

Question: What about the Ki (CTX-M-27) of the same compound?
Answer: 351 ± 28.7 nM

Question: What about the Ki (SHV-12) of the same compound?
Answer: 755 ± 103 nM

Question: What about the Ki (KPC-2) of the same compound?
Answer: 63.7 ± 24.9 nM

Question: And the Ki (OXA-65)?
Answer: > 100000 nM

Source: PMC11620503 (Antimicrobial Agents and Chemotherapy, 2024)
